In ChEMBL document CHEMBL4417621, “Methods to identify tas2r modulators” (2013):
Each block holds one compound with its values, some of them ahead of it. Calls of active or inactive are those of the source. The rule behind the calls is not given here.

What was measured:
[1] = molecular target: T1, Taste receptor type 2 member 16 (Homo sapiens) (UniProt Q9NYV7); assay: Activation of full-length human TAS2R16 expressed in HEK293T/Galpha16-gustducin 44 cells assessed as effect on calcium flux by measuring deltaF/F0 ratio at 10 mM by Fluo-4 dye based FLIPR assay; format: functional, cell-based
T1 sequence (whole entry): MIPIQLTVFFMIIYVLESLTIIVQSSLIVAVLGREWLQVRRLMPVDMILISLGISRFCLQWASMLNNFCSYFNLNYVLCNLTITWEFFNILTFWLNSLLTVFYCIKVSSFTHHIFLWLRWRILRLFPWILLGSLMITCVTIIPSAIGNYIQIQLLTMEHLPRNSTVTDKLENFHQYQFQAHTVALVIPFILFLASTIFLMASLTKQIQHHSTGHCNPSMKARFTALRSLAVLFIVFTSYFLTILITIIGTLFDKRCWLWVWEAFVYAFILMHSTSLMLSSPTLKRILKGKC

[2] = molecular target: T1, Taste receptor type 2 member 16 (Homo sapiens); assay: Activation of full-length human TAS2R16 expressed in HEK293T/Galpha16-gustducin 44 cells assessed as effect on calcium flux by measuring deltaF/F0 ratio at 5 mM by Fluo-4 dye based FLIPR assay; format: functional, cell-based
[3] = molecular target: T1, Taste receptor type 2 member 16 (Homo sapiens); assay: Activation of full-length human TAS2R16 expressed in HEK293T/Galpha16-gustducin 44 cells assessed as effect on calcium flux by measuring deltaF/F0 ratio at 2.5 mM by Fluo-4 dye based FLIPR assay; format: functional, cell-based
[4] = molecular target: T1, Taste receptor type 2 member 16 (Homo sapiens); assay: Activation of full-length human TAS2R16 expressed in HEK293T/Galpha16-gustducin 44 cells assessed as effect on calcium flux by measuring deltaF/F0 ratio at 1.25 mM by Fluo-4 dye based FLIPR assay; format: functional, cell-based
[5] = molecular target: T1, Taste receptor type 2 member 16 (Homo sapiens); assay: Activation of full-length human TAS2R16 expressed in HEK293T/Galpha16-gustducin 44 cells assessed as effect on calcium flux by measuring deltaF/F0 ratio at 0.625 mM by Fluo-4 dye based FLIPR assay; format: functional, cell-based
[6] = molecular target: T1, Taste receptor type 2 member 16 (Homo sapiens); assay: Activation of full-length human TAS2R16 expressed in HEK293T/Galpha16-gustducin 44 cells assessed as effect on calcium flux by measuring deltaF/F0 ratio at 0.3125 mM by Fluo-4 dye based FLIPR assay; format: functional, cell-based
[7] = molecular target: T1, Taste receptor type 2 member 16 (Homo sapiens); assay: Activation of full-length human TAS2R16 expressed in HEK293T/Galpha16-gustducin 44 cells assessed as effect on calcium flux by measuring deltaF/F0 ratio at 0.1563 mM by Fluo-4 dye based FLIPR assay; format: functional, cell-based
[8] = molecular target: T1, Taste receptor type 2 member 16 (Homo sapiens); assay: Activation of full-length human TAS2R16 expressed in HEK293T/Galpha16-gustducin 44 cells assessed as effect on calcium flux by measuring deltaF/F0 ratio at 0.0781 mM by Fluo-4 dye based FLIPR assay; format: functional, cell-based
[9] = molecular target: T1, Taste receptor type 2 member 16 (Homo sapiens); assay: Activation of full-length human TAS2R16 expressed in HEK293T/Galpha16-gustducin 44 cells assessed as effect on calcium flux by measuring deltaF/F0 ratio at 0.0391 mM by Fluo-4 dye based FLIPR assay; format: functional, cell-based
[10] = molecular target: T2, Taste receptor type 2 member 16 (Homo sapiens, UniProt Q9NYV7); assay: Activation of full-length human TAS2R16 expressed in HEK293T/Galpha16-gustducin 44 cells assessed as stimulation of calcium flux by measuring deltaF/F0 ratio by Fluo-4 dye based FLIPR assay; format: functional, cell-based
T2 sequence (Q9NYV7 whole entry): T1 sequence (whole entry)

[11] = molecular target: T3, Taste receptor type 2 member 31 (Homo sapiens) (UniProt P59538); assay: Antagonist activity at full-length human TAS2R44 expressed in HEK293T/Galpha16-gustducin 44 cells assessed as effect on calcium flux by measuring deltaF/F0 ratio at 25 uM in presence of 100 mM sucralose by Fluo-4 dye based FLIPR assay (reference value: 0.352 +/- 0.030); format: functional, cell-based
T3 sequence (whole entry): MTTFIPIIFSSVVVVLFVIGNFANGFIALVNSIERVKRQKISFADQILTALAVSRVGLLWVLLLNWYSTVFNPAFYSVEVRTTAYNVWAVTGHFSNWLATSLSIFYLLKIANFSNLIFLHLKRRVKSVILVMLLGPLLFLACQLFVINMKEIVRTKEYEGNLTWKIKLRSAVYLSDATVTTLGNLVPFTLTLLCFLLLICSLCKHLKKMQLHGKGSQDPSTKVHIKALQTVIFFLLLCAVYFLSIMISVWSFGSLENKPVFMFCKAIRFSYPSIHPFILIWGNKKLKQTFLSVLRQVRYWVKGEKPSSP

[12] = molecular target: T3, Taste receptor type 2 member 31 (Homo sapiens); assay: Antagonist activity at full-length human TAS2R44 expressed in HEK293T/Galpha16-gustducin 44 cells assessed as effect on calcium flux by measuring deltaF/F0 ratio at 25 uM in presence of 50 mM sucralose by Fluo-4 dye based FLIPR assay (reference value: 0.192 +/- 0.011); format: functional, cell-based
[13] = molecular target: T3, Taste receptor type 2 member 31 (Homo sapiens); assay: Antagonist activity at full-length human TAS2R44 expressed in HEK293T/Galpha16-gustducin 44 cells assessed as effect on calcium flux by measuring deltaF/F0 ratio at 25 uM in presence of 25 mM sucralose by Fluo-4 dye based FLIPR assay (reference value: 0.110 +/- 0.019); format: functional, cell-based
[14] = molecular target: T3, Taste receptor type 2 member 31 (Homo sapiens); assay: Antagonist activity at full-length human TAS2R44 expressed in HEK293T/Galpha16-gustducin 44 cells assessed as effect on calcium flux by measuring deltaF/F0 ratio at 25 uM in presence of 12.5 mM sucralose by Fluo-4 dye based FLIPR assay (reference value: 0.051 +/- 0.004); format: functional, cell-based
[15] = molecular target: T3, Taste receptor type 2 member 31 (Homo sapiens); assay: Antagonist activity at full-length human TAS2R44 expressed in HEK293T/Galpha16-gustducin 44 cells assessed as effect on calcium flux by measuring deltaF/F0 ratio at 25 uM in presence of 6.25 mM sucralose by Fluo-4 dye based FLIPR assay (reference value: 0.027 +/- 0.029); format: functional, cell-based
[16] = molecular target: T3, Taste receptor type 2 member 31 (Homo sapiens); assay: Antagonist activity at full-length human TAS2R44 expressed in HEK293T/Galpha16-gustducin 44 cells assessed as effect on calcium flux by measuring deltaF/F0 ratio at 25 uM in presence of 3.125 mM sucralose by Fluo-4 dye based FLIPR assay (reference value: 0.030 +/- 0.042); format: functional, cell-based
[17] = molecular target: T3, Taste receptor type 2 member 31 (Homo sapiens); assay: Antagonist activity at full-length human TAS2R44 expressed in HEK293T/Galpha16-gustducin 44 cells assessed as effect on calcium flux by measuring deltaF/F0 ratio at 25 uM in presence of 1.5625 mM sucralose by Fluo-4 dye based FLIPR assay (reference value: 0.042 +/- 0.039); format: functional, cell-based
[18] = molecular target: T3, Taste receptor type 2 member 31 (Homo sapiens); assay: Antagonist activity at full-length human TAS2R44 expressed in HEK293T/Galpha16-gustducin 44 cells assessed as effect on calcium flux by measuring deltaF/F0 ratio at 25 uM in presence of 0.7813 mM sucralose by Fluo-4 dye based FLIPR assay (reference value: 0.038 +/- 0.042); format: functional, cell-based
[19] = molecular target: T3, Taste receptor type 2 member 31 (Homo sapiens); assay: Antagonist activity at full-length human TAS2R44 expressed in HEK293T/Galpha16-gustducin 44 cells assessed as effect on calcium flux by measuring deltaF/F0 ratio at 25 uM in presence of 0.3906 mM sucralose by Fluo-4 dye based FLIPR assay (reference value: 0.046 +/- 0.048); format: functional, cell-based
HEK-293T = assay: Effect on calcium flux in HEK293T/Galpha16-gustducin 44 cells assessed as effect on calcium flux by measuring deltaF/F0 ratio at 25 uM in presence of 100 mM sucralose by Fluo-4 dye based FLIPR assay (reference value: -0.179 +/- 0.023); format: functional, Homo sapiens
[20] = molecular target: T1, Taste receptor type 2 member 16 (Homo sapiens); assay: Antagonist activity at full-length human TAS2R16 expressed in HEK293T/Galpha16-gustducin 44 cells assessed as effect on calcium flux by measuring deltaF/F0 ratio at 25 uM in presence of 10 mM phenyl-beta-glucopyranoside by Fluo-4 dye based FLIPR assay; format: functional, cell-based
[21] = molecular target: T1, Taste receptor type 2 member 16 (Homo sapiens); assay: Antagonist activity at full-length human TAS2R16 expressed in HEK293T/Galpha16-gustducin 44 cells assessed as effect on calcium flux by measuring deltaF/F0 ratio at 25 uM in presence of 5 mM phenyl-beta-glucopyranoside by Fluo-4 dye based FLIPR assay; format: functional, cell-based
[22] = molecular target: T1, Taste receptor type 2 member 16 (Homo sapiens); assay: Antagonist activity at full-length human TAS2R16 expressed in HEK293T/Galpha16-gustducin 44 cells assessed as effect on calcium flux by measuring deltaF/F0 ratio at 25 uM in presence of 2.5 mM phenyl-beta-glucopyranoside by Fluo-4 dye based FLIPR assay; format: functional, cell-based
[23] = molecular target: T1, Taste receptor type 2 member 16 (Homo sapiens); assay: Antagonist activity at full-length human TAS2R16 expressed in HEK293T/Galpha16-gustducin 44 cells assessed as effect on calcium flux by measuring deltaF/F0 ratio at 25 uM in presence of 1.25 mM phenyl-beta-glucopyranoside by Fluo-4 dye based FLIPR assay; format: functional, cell-based
[24] = molecular target: T1, Taste receptor type 2 member 16 (Homo sapiens); assay: Antagonist activity at full-length human TAS2R16 expressed in HEK293T/Galpha16-gustducin 44 cells assessed as effect on calcium flux by measuring deltaF/F0 ratio at 25 uM in presence of 0.625 mM phenyl-beta-glucopyranoside by Fluo-4 dye based FLIPR assay; format: functional, cell-based
[25] = molecular target: T1, Taste receptor type 2 member 16 (Homo sapiens); assay: Antagonist activity at full-length human TAS2R16 expressed in HEK293T/Galpha16-gustducin 44 cells assessed as effect on calcium flux by measuring deltaF/F0 ratio at 25 uM in presence of 0.3125 mM phenyl-beta-glucopyranoside by Fluo-4 dye based FLIPR assay; format: functional, cell-based
[26] = molecular target: T1, Taste receptor type 2 member 16 (Homo sapiens); assay: Antagonist activity at full-length human TAS2R16 expressed in HEK293T/Galpha16-gustducin 44 cells assessed as effect on calcium flux by measuring deltaF/F0 ratio at 25 uM in presence of 0.1563 mM phenyl-beta-glucopyranoside by Fluo-4 dye based FLIPR assay; format: functional, cell-based
[27] = molecular target: T1, Taste receptor type 2 member 16 (Homo sapiens); assay: Antagonist activity at full-length human TAS2R16 expressed in HEK293T/Galpha16-gustducin 44 cells assessed as effect on calcium flux by measuring deltaF/F0 ratio at 25 uM in presence of 0.0781 mM phenyl-beta-glucopyranoside by Fluo-4 dye based FLIPR assay; format: functional, cell-based
[28] = molecular target: T1, Taste receptor type 2 member 16 (Homo sapiens); assay: Antagonist activity at full-length human TAS2R16 expressed in HEK293T/Galpha16-gustducin 44 cells assessed as effect on calcium flux by measuring deltaF/F0 ratio at 25 uM in presence of 0.0391 mM phenyl-beta-glucopyranoside by Fluo-4 dye based FLIPR assay; format: functional, cell-based
[29] = molecular target: T4, Taste receptor type 2 member 1 (Homo sapiens) (UniProt Q9NYW7); assay: Antagonist activity at full-length human TAS2R1 expressed in HEK293T/Galpha16-gustducin 44 cells assessed as inhibition of sucralose-induced calcium flux at 25 uM by Fluo-4 dye based FLIPR assay; format: functional, cell-based
T4 sequence (whole entry): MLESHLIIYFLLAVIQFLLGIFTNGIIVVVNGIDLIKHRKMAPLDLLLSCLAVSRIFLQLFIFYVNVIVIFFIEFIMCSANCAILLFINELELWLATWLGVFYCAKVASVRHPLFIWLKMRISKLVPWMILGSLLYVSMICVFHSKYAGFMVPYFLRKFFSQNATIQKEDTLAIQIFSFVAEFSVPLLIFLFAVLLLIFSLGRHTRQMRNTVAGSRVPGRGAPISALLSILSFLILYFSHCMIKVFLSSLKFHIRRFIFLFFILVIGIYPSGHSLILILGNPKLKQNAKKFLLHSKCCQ

Homo sapiens = species: Homo sapiens; assay: Inhibition of 3 mM sucralose-induced bitter sensitivity in bitter sensitive human panelists tasting solution containing 3 mM sucralose with 13 ppm test compound; format: functional, organism-based
[30] = molecular target: T1, Taste receptor type 2 member 16 (Homo sapiens); assay: Antagonist activity at full-length human TAS2R16 expressed in HEK293T/Galpha16-gustducin 44 cells assessed as inhibition of P-beta-G-induced calcium flux by measuring P-beta-G EC50 at 25 uM by Fluo-4 dye based FLIPR assay; format: functional, cell-based

Ratio [1]: 2.88
Ratio [2]: 2.69
Ratio [3]: 2.58
Ratio [4]: 2.36
Ratio [5]: 2.28
Ratio [6]: 1.81
Ratio [7]: 0.926
Ratio [8]: 0.213
Ratio [9]: 0.012
EC50 [10]: 210 µM
SMILES: OC[C@H]1O[C@@H](Oc2ccccc2)[C@H](O)[C@@H](O)[C@@H]1O

Ratio [11]: 0.107
Ratio [12]: -0.025
Ratio [13]: -0.035
Ratio [14]: -0.015
Ratio [15]: 0
Ratio [16]: 0.005
Ratio [17]: 0.016
Ratio [18]: 0.01
Ratio [19]: 0.011
Ratio [20]: 2.83
Ratio [21]: 2.65
Ratio [22]: 2.48
Ratio [23]: 2.37
Ratio [24]: 2.14
Ratio [25]: 1.55
Ratio [26]: 0.702
Ratio [27]: 0.108
Ratio [28]: -0.013
inhibition [29]: Active
SMILES: CC1=CCC(C/C=C/C(=O)O)C1(C)C (centres undefined)
Ratio (HEK-293T): -0.175
inhibition (Homo sapiens): Active

inhibition [29]: inactive
inhibition [30]: inactive
SMILES: CC1CCC(CCCC(N)=O)C1(C)C (centres undefined)
Activity (HEK-293T; Homo sapiens): inactive
